How the values were obtained:
[1] = target: Cyclin-dependent kinase 11B (Homo sapiens) (UniProt P21127); conditions: Compound concentration 100.0 nM
[2] = target: Serine/threonine-protein kinase PLK1 (Homo sapiens) (UniProt P53350); conditions: Compound concentration 100.0 nM
[3] = target: Myosin-IIIa (Homo sapiens) (UniProt Q8NEV4); conditions: Compound concentration 100.0 nM
[4] = target: Cyclin-dependent kinase 13 (Homo sapiens) (UniProt Q14004); conditions: Compound concentration 100.0 nM
[5] = target: Hepatocyte growth factor receptor (Homo sapiens) (UniProt P08581); conditions: Compound concentration 100.0 nM
[6] = target: Calcium/calmodulin-dependent protein kinase type 1G (Homo sapiens) (UniProt Q96NX5); conditions: Compound concentration 100.0 nM
[7] = target: Mitogen-activated protein kinase 3 (Homo sapiens) (UniProt P27361); conditions: Compound concentration 100.0 nM
[8] = target: Serine/threonine-protein kinase Nek6 (Homo sapiens) (UniProt Q9HC98); conditions: Compound concentration 100.0 nM
[9] = target: Mitogen-activated protein kinase 1 (Homo sapiens) (UniProt P28482); conditions: Compound concentration 100.0 nM
[10] = target: Ribosomal protein S6 kinase alpha-2 (Homo sapiens) (UniProt Q15349); conditions: Compound concentration 100.0 nM
[11] = target: Tyrosine-protein kinase SYK (Homo sapiens) (UniProt P43405); conditions: Compound concentration 100.0 nM
[12] = target: Beta-adrenergic receptor kinase 1 (Homo sapiens) (UniProt P25098); conditions: Compound concentration 100.0 nM
[13] = target: Dual serine/threonine and tyrosine protein kinase (Homo sapiens) (UniProt Q6XUX3); conditions: Compound concentration 100.0 nM
[14] = test system: Tyrosine-protein kinase ABL1 (Homo sapiens), P00519 [F317L]; conditions: Compound concentration 100.0 nM
[15] = test system: Proto-oncogene tyrosine-protein kinase receptor Ret (Homo sapiens), P07949 [V804L]; conditions: Compound concentration 100.0 nM
[16] = target: SRSF protein kinase 3 (Homo sapiens) (UniProt Q9UPE1); conditions: Compound concentration 100.0 nM
[17] = target: Muscarinic acetylcholine receptor M5 (Homo sapiens) (UniProt P08912); conditions: Compound concentration 10.0 uM
[18] = target: Serine/threonine-protein kinase OSR1 (Homo sapiens) (UniProt O95747); conditions: Compound concentration 100.0 nM
[19] = target: Protein kinase C delta type (Homo sapiens) (UniProt Q05655); conditions: Compound concentration 100.0 nM
[20] = target: Receptor-type tyrosine-protein kinase FLT3 (Homo sapiens) (UniProt P36888); conditions: Compound concentration 100.0 nM
[21] = target: Phosphatidylinositol 4-phosphate 5-kinase type-1 alpha (Homo sapiens) (UniProt Q99755); conditions: Compound concentration 100.0 nM
[22] = target: Cyclin-dependent kinase 8 (Homo sapiens) (UniProt P49336); conditions: Compound concentration 100.0 nM
[23] = target: Ephrin type-A receptor 8 (Homo sapiens) (UniProt P29322); conditions: Compound concentration 100.0 nM
[24] = target: Serine/threonine-protein kinase TAO2 (Homo sapiens) (UniProt Q9UL54); conditions: Compound concentration 100.0 nM
[25] = target: Serine/threonine-protein kinase tousled-like 1 (Homo sapiens) (UniProt Q9UKI8); conditions: Compound concentration 100.0 nM
[26] = test system: Receptor-type tyrosine-protein kinase FLT3 (Homo sapiens), P36888 [N841I]; conditions: Compound concentration 100.0 nM
[27] = target: Dual specificity protein kinase CLK2 (Homo sapiens) (UniProt P49760); conditions: Compound concentration 100.0 nM
[28] = target: Tyrosine-protein kinase Fyn (Homo sapiens) (UniProt P06241); conditions: Compound concentration 100.0 nM
[29] = target: GABA-A receptor; anion channel (Rattus norvegicus) (UniProt O09028+P15431+P18506+P18508+P19969+P20236+P23574+P23576+P28471+P28473+P30191+P62813+P63079+P63138+Q91ZM7+Q9ES14); conditions: Compound concentration 10.0 uM
[30] = target: Serine/threonine-protein kinase 38 (Homo sapiens) (UniProt Q15208); conditions: Compound concentration 100.0 nM
[31] = target: Ankyrin repeat and protein kinase domain-containing protein 1 (Homo sapiens) (UniProt Q8NFD2); conditions: Compound concentration 100.0 nM
[32] = target: Serine/threonine-protein kinase MRCK gamma (Homo sapiens) (UniProt Q6DT37); conditions: Compound concentration 100.0 nM
[33] = target: BDNF/NT-3 growth factors receptor (Homo sapiens) (UniProt Q16620); conditions: Compound concentration 100.0 nM
[34] = target: Sodium-dependent serotonin transporter (Homo sapiens) (UniProt P31645); conditions: Compound concentration 10.0 uM
[35] = target: Phosphatidylinositol 4,5-bisphosphate 3-kinase catalytic subunit delta isoform (Homo sapiens) (UniProt O00329); conditions: Compound concentration 100.0 nM
[36] = target: Homeodomain-interacting protein kinase 4 (Homo sapiens) (UniProt Q8NE63); conditions: Compound concentration 100.0 nM
[37] = target: Cyclin-dependent kinase 2 (Homo sapiens) (UniProt P24941); conditions: Compound concentration 100.0 nM
[38] = target: Phosphatidylinositol 4-phosphate 3-kinase C2 domain-containing subunit beta (Homo sapiens) (UniProt O00750); conditions: Compound concentration 100.0 nM
Chain of Phosphatidylinositol 4-phosphate 3-kinase C2 domain-containing subunit beta (Homo sapiens) (O00750 whole entry, the tested form may be a part): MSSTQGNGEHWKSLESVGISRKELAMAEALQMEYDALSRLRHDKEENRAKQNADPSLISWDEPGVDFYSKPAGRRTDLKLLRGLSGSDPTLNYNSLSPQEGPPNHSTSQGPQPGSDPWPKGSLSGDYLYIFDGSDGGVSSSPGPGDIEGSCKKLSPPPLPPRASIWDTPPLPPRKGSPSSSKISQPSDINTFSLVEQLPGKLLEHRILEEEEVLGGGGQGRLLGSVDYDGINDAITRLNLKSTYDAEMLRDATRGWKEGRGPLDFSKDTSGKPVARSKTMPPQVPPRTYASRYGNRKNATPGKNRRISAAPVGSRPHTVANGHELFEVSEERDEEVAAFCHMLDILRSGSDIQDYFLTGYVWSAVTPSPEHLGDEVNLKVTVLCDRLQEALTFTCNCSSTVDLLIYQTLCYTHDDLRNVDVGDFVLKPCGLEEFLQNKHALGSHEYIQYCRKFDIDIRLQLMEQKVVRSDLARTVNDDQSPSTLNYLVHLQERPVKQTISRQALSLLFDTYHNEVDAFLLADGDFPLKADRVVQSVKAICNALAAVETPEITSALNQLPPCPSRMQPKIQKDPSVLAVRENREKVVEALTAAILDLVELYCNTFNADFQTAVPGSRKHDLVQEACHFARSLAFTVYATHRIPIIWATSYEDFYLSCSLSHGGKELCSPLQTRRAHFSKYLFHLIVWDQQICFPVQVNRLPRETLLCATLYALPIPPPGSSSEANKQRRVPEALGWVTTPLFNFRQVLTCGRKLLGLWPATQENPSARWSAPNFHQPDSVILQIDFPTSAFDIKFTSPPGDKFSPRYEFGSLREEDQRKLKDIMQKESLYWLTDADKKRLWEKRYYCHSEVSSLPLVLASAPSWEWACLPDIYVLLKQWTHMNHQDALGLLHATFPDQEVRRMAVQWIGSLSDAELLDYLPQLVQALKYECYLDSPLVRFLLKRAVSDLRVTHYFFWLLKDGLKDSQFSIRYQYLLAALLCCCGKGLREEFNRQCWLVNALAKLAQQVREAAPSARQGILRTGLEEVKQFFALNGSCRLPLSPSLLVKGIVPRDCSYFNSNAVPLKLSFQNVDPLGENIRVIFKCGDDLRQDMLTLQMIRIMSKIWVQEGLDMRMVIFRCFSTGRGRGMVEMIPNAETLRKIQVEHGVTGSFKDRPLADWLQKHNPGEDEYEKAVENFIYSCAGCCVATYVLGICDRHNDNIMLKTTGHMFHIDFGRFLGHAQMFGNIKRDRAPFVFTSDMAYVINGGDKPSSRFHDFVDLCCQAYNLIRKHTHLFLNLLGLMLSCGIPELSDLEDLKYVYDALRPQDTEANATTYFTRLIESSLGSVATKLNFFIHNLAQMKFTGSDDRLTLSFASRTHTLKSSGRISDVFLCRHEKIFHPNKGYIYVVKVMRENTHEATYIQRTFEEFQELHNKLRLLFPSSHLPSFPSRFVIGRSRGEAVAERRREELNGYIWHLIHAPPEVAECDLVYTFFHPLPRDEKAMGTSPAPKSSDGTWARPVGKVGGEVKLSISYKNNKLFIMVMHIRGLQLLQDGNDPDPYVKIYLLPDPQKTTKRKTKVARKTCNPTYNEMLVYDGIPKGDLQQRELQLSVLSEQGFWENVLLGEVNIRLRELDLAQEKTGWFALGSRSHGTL

Chain of Cyclin-dependent kinase 11B (Homo sapiens) (P21127 whole entry): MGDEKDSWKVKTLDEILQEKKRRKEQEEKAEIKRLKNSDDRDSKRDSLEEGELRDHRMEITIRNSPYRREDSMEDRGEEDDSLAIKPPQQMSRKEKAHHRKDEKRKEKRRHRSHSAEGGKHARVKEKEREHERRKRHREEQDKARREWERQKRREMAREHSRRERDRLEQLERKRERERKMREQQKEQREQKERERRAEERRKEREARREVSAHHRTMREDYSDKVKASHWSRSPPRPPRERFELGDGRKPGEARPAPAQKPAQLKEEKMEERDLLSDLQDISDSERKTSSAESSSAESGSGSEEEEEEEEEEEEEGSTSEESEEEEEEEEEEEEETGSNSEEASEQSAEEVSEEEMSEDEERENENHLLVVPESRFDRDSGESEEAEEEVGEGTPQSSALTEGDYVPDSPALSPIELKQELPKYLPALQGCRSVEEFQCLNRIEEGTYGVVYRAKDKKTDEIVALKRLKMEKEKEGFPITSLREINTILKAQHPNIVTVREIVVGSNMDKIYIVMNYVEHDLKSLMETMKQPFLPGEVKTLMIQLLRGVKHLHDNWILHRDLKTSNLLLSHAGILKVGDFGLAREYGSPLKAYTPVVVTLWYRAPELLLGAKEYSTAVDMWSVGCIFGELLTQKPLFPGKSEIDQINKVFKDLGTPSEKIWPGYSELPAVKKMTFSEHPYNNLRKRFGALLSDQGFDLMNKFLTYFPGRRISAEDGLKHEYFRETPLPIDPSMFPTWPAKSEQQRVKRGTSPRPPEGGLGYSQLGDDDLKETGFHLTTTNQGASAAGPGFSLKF
Chain of Serine/threonine-protein kinase PLK1 (Homo sapiens) (P53350 whole entry): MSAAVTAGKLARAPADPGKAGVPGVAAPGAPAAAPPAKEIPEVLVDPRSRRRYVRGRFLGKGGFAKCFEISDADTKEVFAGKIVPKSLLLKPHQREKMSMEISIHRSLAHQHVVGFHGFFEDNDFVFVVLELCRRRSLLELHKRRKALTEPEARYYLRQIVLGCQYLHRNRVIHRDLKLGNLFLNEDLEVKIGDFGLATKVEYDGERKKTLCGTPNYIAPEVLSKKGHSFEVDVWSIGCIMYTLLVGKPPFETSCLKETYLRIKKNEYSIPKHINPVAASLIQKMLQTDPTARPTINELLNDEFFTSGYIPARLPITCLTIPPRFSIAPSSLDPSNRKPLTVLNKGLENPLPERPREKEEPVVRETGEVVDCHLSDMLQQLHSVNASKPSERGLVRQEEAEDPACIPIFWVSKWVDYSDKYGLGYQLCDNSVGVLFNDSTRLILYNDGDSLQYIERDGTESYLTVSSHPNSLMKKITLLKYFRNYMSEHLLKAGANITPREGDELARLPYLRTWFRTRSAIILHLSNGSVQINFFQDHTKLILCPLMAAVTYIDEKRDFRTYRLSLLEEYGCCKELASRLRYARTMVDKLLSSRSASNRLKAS
Chain of Serine/threonine-protein kinase tousled-like 1 (Homo sapiens) (Q9UKI8 whole entry): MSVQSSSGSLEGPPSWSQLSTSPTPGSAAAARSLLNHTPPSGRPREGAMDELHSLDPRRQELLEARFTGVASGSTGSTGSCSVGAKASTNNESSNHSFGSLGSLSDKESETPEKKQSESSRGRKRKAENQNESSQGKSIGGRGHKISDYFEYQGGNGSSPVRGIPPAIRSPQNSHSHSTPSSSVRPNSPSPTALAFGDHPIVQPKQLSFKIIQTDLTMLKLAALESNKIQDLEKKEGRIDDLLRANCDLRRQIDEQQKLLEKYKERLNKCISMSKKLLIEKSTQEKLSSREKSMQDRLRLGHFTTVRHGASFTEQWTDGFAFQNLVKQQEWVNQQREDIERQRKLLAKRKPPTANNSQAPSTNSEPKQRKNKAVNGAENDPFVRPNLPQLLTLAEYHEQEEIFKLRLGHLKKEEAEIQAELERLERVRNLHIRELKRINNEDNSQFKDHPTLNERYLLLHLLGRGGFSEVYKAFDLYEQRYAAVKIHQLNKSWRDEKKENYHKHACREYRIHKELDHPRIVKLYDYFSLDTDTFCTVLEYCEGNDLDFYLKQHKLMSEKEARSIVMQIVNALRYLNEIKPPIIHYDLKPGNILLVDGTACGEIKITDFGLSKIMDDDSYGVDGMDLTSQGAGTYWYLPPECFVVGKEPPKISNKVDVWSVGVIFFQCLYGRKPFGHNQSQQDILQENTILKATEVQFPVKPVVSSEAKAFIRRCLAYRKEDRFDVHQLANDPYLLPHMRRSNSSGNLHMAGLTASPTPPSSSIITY
Chain of Dual specificity protein kinase CLK2 (Homo sapiens) (P49760 whole entry, looked up): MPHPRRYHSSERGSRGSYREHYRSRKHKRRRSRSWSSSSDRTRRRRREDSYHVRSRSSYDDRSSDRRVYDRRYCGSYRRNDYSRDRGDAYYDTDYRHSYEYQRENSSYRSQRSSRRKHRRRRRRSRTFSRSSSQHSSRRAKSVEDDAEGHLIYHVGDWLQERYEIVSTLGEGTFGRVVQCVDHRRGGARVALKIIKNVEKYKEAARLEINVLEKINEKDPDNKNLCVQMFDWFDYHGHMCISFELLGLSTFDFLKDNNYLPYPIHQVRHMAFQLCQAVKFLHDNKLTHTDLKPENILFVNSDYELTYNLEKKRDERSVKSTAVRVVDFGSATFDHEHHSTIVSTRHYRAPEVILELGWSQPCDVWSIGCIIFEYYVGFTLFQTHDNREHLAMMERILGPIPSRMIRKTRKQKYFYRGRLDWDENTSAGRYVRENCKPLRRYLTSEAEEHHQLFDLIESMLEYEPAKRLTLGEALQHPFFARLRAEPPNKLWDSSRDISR
Chain of Calcium/calmodulin-dependent protein kinase type 1G (Homo sapiens) (Q96NX5 whole entry): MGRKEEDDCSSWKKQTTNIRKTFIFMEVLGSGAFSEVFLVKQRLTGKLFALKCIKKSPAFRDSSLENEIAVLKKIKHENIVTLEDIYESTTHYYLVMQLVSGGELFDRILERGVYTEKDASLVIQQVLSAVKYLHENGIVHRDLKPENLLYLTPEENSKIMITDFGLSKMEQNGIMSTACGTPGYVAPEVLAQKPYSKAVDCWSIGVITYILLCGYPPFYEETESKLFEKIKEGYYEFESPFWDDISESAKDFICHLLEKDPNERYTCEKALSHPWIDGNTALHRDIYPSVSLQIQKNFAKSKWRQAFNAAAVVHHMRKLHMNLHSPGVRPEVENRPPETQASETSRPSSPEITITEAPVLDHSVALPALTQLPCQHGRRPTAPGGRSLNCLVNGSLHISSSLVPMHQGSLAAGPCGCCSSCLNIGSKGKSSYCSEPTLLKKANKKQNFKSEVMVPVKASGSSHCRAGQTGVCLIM

Cc1c[nH]c2nccc(Oc3c(F)cc(Nc4cc(Cl)nc(N)n4)cc3F)c12 [BAY-549]
inactive: residual activity [1] 80% | residual activity [2] 75% | residual activity [3] 95% | residual activity [4] 73% | residual activity [5] 83% | residual activity [6] 97% | residual activity [7] 90% | residual activity [8] 99% | residual activity [9] 99% | residual activity [10] 82% | residual activity [11] 100% | residual activity [12] 98% | residual activity [13] 67% | residual activity [14] 84% | residual activity [15] 100% | residual activity [16] 100% | inhibition [17] -3.6% | residual activity [18] 92% | residual activity [19] 100% | residual activity [20] 76% | residual activity [21] 68% | residual activity [22] 69% | residual activity [23] 87% | residual activity [24] 100% | residual activity [25] 100% | residual activity [26] 76% | residual activity [27] 86% | residual activity [28] 100% | inhibition [29] 4.87% | residual activity [30] 89% | residual activity [31] 85% | residual activity [32] 68% | residual activity [33] 94% | inhibition [34] 2.1% | residual activity [35] 51% | residual activity [36] 100% | residual activity [37] 99% | residual activity [38] 88%

Cn1cc(Cl)c2c(Oc3c(F)cc(Nc4cc(Cl)nc(N)n4)cc3F)ccnc21 [BAY-4900]
inactive: residual activity [1] 100% | residual activity [2] 83% | residual activity [3] 100% | residual activity [4] 77% | residual activity [5] 90% | residual activity [6] 100% | residual activity [7] 98% | residual activity [8] 100% | residual activity [9] 100% | residual activity [10] 95% | residual activity [11] 100% | residual activity [12] 81% | residual activity [13] 98% | residual activity [14] 94% | residual activity [15] 91% | residual activity [16] 100% | inhibition [17] 3.3% | residual activity [18] 93% | residual activity [19] 100% | residual activity [20] 100% | residual activity [21] 70% | residual activity [22] 97% | residual activity [23] 100% | residual activity [24] 100% | residual activity [25] 100% | residual activity [26] 96% | residual activity [27] 87% | residual activity [28] 80% | inhibition [29] 1.6% | residual activity [30] 87% | residual activity [31] 83% | residual activity [32] 100% | residual activity [33] 96% | inhibition [34] -5.34% | residual activity [35] 51% | residual activity [36] 100% | residual activity [37] 100% | residual activity [38] 83%

Source: ChEMBL document CHEMBL4507274 (2021)
